Data set [1] concerns Botryotinia fuckeliana (Botrytis cinerea). Briefly: Botryotinia fuckeliana (Botrytis cinerea) / liquid culture (gray mould). In kind it is cell-based. The settings on record: Vogels broth, 24° C., 3-4 days after application, read-out: control of Botryotinia fuckeliana (inhibition of growth, photometric). In a few lines:
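Botrytis cinerea conidia in Vogels broth were added to test compound applied from DMSO at 200 ppm. Incubation at 24 °C; growth inhibition read photometrically 3-4 days after application.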

In the next data set the test system is Pyrenophora teres. Briefly: Pyrenophora teres / barley / leaf disc preventative (net blotch). In kind it is in vivo. The settings on record: foliar, barley leaf segments cv Hasso, inoculated two days after application, assessed 5-7 days after application, read-out: control of Pyrenophora teres (disease control compared to untreated). An outline of the steps:
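Barley cv Hasso leaf segments on agar sprayed with compound at 200 ppm, inoculated with spores two days later. Kept at 20 °C, 65% RH, 12/12 h light; disease control versus untreated scored 5-7 days after application.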

The subject of data set [2] is Thanatephorus cucumeris (Rhizoctonia solani). Briefly: Thanatephorus cucumeris (Rhizoctonia solani) / liquid culture (foot rot, damping-off). The class given is cell-based. Conditions: PDB, 24° C., 3-4 days after application, read-out: control of Thanatephorus cucumeris (inhibition of growth, photometric). In a few lines: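 Mycelial fragments in potato dextrose broth exposed to test compounds at 200 ppm (from DMSO solution), incubated at 24° C. Growth inhibition read photometrically 3-4 days after application.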

For data set [3], the system named is Puccinia recondita f. sp. Tritici. Briefly: Puccinia recondita f. sp. tritici / wheat / leaf disc curative (brown rust). In kind it is in vivo. Conditions: foliar, wheat leaf segments cv Kanzler, applied 1 day after inoculation, assessed 6-8 days after application, read-out: control of Puccinia recondita f. sp. Tritici (percent disease control compared to untreated). The protocol: Puccinia recondita f. Sp. Tritici/Wheat/Leaf Disc Curative (Brown Rust): Wheat leaf segments cv Kanzler were placed on agar in 24-well plates. The leaf segments were inoculated with a spore suspension of the fungus. The plates were stored in darkness at 19° C. and 75% relative humidity. The formulated test compound diluted in water was applied at an application rate of 200 ppm 1 day after inoculation. […] Tritici at 200 ppm when compared to untreated control leaf disks under the same conditions, which show extensive disease development: 2, 13, 16, 23, 30, 61, 75, 89, 103, 173, 174

Data set [4] deals with Mycosphaerella graminicola (Septoria tritici). The experiment in a line: Mycosphaerella graminicola (Septoria tritici) / liquid culture (Septoria blotch). The class given is cell-based. Conditions: Zymoseptoria tritici, PDB, 24° C., 4-5 days after application, read-out: control of Mycosphaerella graminicola (inhibition of growth, photometric). An outline of the steps: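 Cryo-stored conidia in potato dextrose broth were added to compound in DMSO at 200 ppm in microtiter plates. Plates were incubated at 24 °C and growth inhibition was measured photometrically 4–5 days after application.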

The subject of data set [5] is Blumeria graminis f. Sp. Tritici (Erysiphe graminis f. Sp. Tritici). The experiment in a line: Blumeria graminis f. sp. tritici / wheat / leaf disc preventative (powdery mildew on wheat). The class given is in vivo. Conditions: foliar, wheat leaf segments cv. Kanzler, inoculated 1 day after application, assessed 6-8 days after application, read-out: control of Blumeria graminis (percent disease control compared to untreated). In a few lines: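 Wheat leaf segments (cv. Kanzler) on agar sprayed with formulated compound at 200 ppm, inoculated with powdery mildew 1 day later. Held at 20 °C, 60% RH, 24 h dark then 12 h/12 h light; percent disease control versus untreated scored 6-8 days after application.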

Data set [6] has as its system Phaeosphaeria nodorum (Septoria nodorum). Briefly: Phaeosphaeria nodorum (Septoria nodorum) / wheat / leaf disc preventative (glume blotch). The class given is in vivo. The settings on record: Parastagonospora nodorum, foliar, wheat leaf segments cv Kanzler, inoculated 2 days after application, assessed 5-7 days after application, read-out: control of Phaeosphaeria nodorum (percent disease control compared to untreated). An outline of the steps: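 Wheat leaf segments (cv Kanzler) on agar sprayed with compound at 200 ppm, inoculated with spores 2 days later. Incubated at 20° C., 75% relative humidity, 12/12 h light/dark; percent disease control versus untreated scored 5-7 days after application.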

Data set [7] concerns Puccinia recondita f. sp. Tritici. The experiment in a line: Puccinia recondita f. sp. tritici / wheat / leaf disc preventative (brown rust). The class given is in vivo. Conditions: foliar, wheat leaf segments cv Kanzler, inoculated 1 day after application, assessed 7-9 days after application, read-out: control of Puccinia recondita f. sp. Tritici (percent disease control compared to untreated). An outline of the steps:
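Leaf segments of wheat cv Kanzler on agar were sprayed with formulated compound at 200 ppm and inoculated with spores 1 day later. Incubation was at 19° C, 75% relative humidity and 12/12 h light/dark. Activity was scored 7-9 days after application as percent disease control versus untreated.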

The test system of the next data set is Gaeumannomyces graminis. Briefly: Gaeumannomyces graminis / liquid culture (take-all of cereals). In kind it is cell-based. Conditions: PDB, 24° C., 4-5 days after application, read-out: control of Gaeumannomyces graminis (inhibition of growth, photometric). An outline of the steps:
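Mycelial fragments in potato dextrose broth were exposed to compound from DMSO at 200 ppm in microtiter plates. Incubation at 24 °C; growth inhibition read photometrically 4-5 days after application.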

Another data set has as its system Sclerotinia sclerotiorum. The experiment in a line: Sclerotinia sclerotiorum liquid culture (cottony rot / white mold). The class given is cell-based. Conditions: PDB, 24° C., 3-4 days after application, read-out: control of Sclerotinia sclerotiorum (inhibition of growth, photometric). An outline of the steps:
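Mycelia fragments of Sclerotinia sclerotiorum in potato dextrose broth were added to compound in DMSO. Cultures incubated at 24° C; growth inhibition determined photometrically 3-4 days after application.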

The test system of data set [8] is Glomerella lagenarium (Colletotrichum lagenarium). The experiment in a line: Glomerella lagenarium (Colletotrichum lagenarium) / liquid culture (anthracnose). Conditions: Colletotrichum orbiculare, PDB, 24° C., 3-4 days after application, read-out: control of Glomerella lagenarium (inhibition of growth, photometric). The class given is cell-based. An outline of the steps:
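Cryopreserved conidia suspended in potato dextrose broth were added to compound in DMSO applied at 200 ppm. Plates incubated at 24° C; growth inhibition read photometrically 3-4 days after application.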

Data set [9] relates to Monographella nivalis (Microdochium nivale). Briefly: Monographella nivalis (Microdochium nivale) / liquid culture (foot rot cereals). The settings on record: PDB, 24° C., 4-5 days after application, read-out: control of Monographella nivalis (inhibition of growth, photometric). The class given is cell-based. In a few lines:
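Cryostored conidia in potato dextrose broth were added to test compound dispensed from DMSO at 200 ppm. Plates were kept at 24° C, and growth inhibition was read photometrically 4-5 days after application.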

The test system of the next data set is Plasmopara viticola. Briefly: Plasmopara viticola / grape / leaf disc preventative. In kind it is in vivo. The settings on record: foliar, grape vine leaf disks, inoculated 1 day after application, assessed 6-8 days after application, read-out: control of Plasmopara viticola (percent disease control compared to untreated).
The subject of data set [10] is Mycosphaerella arachidis (Cercospora arachidicola). Briefly: Mycosphaerella arachidis (Cercospora arachidicola) / liquid culture (early leaf spot). In kind it is cell-based. Conditions: PDB, 24° C., 4-5 days after application, read-out: control of Mycosphaerella arachidis (inhibition of growth, photometric). An outline of the steps: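 Conidia suspended in potato dextrose broth and added to test compound from DMSO solution at 200 ppm. Incubated at 24 °C; growth inhibition read photometrically 4-5 days after application.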

The subject of the next data set is Pythium ultimum. Briefly: Pythium ultimum / liquid culture (seedling damping off). In kind it is cell-based. The settings on record: Globisporangium ultimum, potato dextrose broth, 24° C., 2-3 days after application, read-out: control of Pythium ultimum (inhibition of growth, photometric). In a few lines: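 Test compound in DMSO at 200 ppm was incubated with mycelia fragments and oospores in potato dextrose broth at 24 °C. Growth inhibition was read photometrically 2-3 days after application.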

The next data set relates to Fusarium culmorum. Briefly: microbe, parasite or virus in culture. The class given is cell-based. The settings on record: read-out: control of Fusarium culmorum (inhibition of growth, photometric).
Data set [11] has as its system Fusarium graminearum, syn. Gibberella zeae. Briefly: whole plant or invertebrate. Conditions: in Triticum aestivum, 144 h, read-out: control of Gibberella zeae (preventative fungicidal activity). In kind it is in vivo.

The term inhibition denotes the share of the control response that was lost under treatment. For the compound `CCn1c(-n2ncnc2N)nc2cncc(-c3cnn(C)c3)c21` [Compound 61, 2-[1-ethyl-7-(1-methylpyrazol-4-yl)imidazo[4,5-c]pyridin-2-yl]-1,2,4-triazol-3-amine], the inhibition at 20 ppm in data set [1], in data set [2] and in data set [4] was ≥ 80% each time. For the same compound, the pest or weed control at 200 ppm (with Pyrenophora teres; in [3]; in data set [5]; in data set [6]; in [7]) was ≥ 80% in each case.
In general, melting point refers to the temperature of the solid-liquid transition. The compound `CC=Cn1c(-n2ncnc2N)nc2cnccc21` [Compound 16, 2-(1-prop-1-enylimidazo[4,5-c]pyridin-2-yl)-1,2,4-triazol-3-amine] gave a melting point of 199 to 200 °C. The inhibition at 20 ppm in data set [1] was ≥ 80%. Besides, the pest or weed control at 200 ppm in the data set on Pyrenophora teres was ≥ 80%. Moreover, the inhibition at 20 ppm in [2] is ≥ 80%. Moreover, the pest or weed control at 200 ppm in data set [3] was ≥ 80%. For the same compound, the inhibition at 20 ppm with Gaeumannomyces graminis was ≥ 80%.
Turning to `CCn1c(-n2ncnc2N)nc2cncc(-c3ccc(C(F)(F)F)cc3)c21` [Compound 30, 2-[1-ethyl-7-[4-(trifluoromethyl)phenyl]imidazo[4,5-c]pyridin-2-yl]-1,2,4-triazol-3-amine], the inhibition at 20 ppm (in data set [1]; in [2]; in the data set with Sclerotinia sclerotiorum; in data set [8]) was ≥ 80% each time. The pest or weed control at 200 ppm (with Pyrenophora teres; in [3]; in data set [6]; in data set [7]) was ≥ 80% in each case.
Turning to `CCn1c(-n2ncnc2N)nc2cncc(-c3cccnc3Cl)c21` [Compound 103, 2-[7-(2-chloropyridin-3-yl)-1-ethylimidazo[4,5-c]pyridin-2-yl]-1,2,4-triazol-3-amine], the inhibition at 20 ppm (in [1]; in data set [2]; in the data set on Gaeumannomyces graminis; in data set [9]; in [4]; in [8]) was ≥ 80% each time. Moreover, the pest or weed control at 200 ppm (in the data set on Pyrenophora teres; in [3]; in [5]; in data set [6]; in data set [7]) was ≥ 80% in each case.
Regarding `C/C=C/CO/N=C(/C)c1cncc2nc(-n3ncnc3N)n(CC)c12` [Compound 176], the inhibition at 20 ppm (in [1]; in data set [2]; with Sclerotinia sclerotiorum; in the data set with Gaeumannomyces graminis; in [9]; in data set [4]) was ≥ 80% throughout. Moreover, the inhibition at 20 ppm (in [10]; in the data set with Pythium ultimum; with Fusarium culmorum) was ≥ 80% throughout. In addition, the pest or weed control at 200 ppm (in the data set on Pyrenophora teres; in the data set on Plasmopara viticola; in data set [6]) was ≥ 80% in each case.
As to `CCn1c(-n2ncnc2N)nc2cncc(-c3ccccc3F)c21` [Compound 79, 2-[1-ethyl-7-(2-fluorophenyl)imidazo[4,5-c]pyridin-2-yl]-1,2,4-triazol-3-amine], the inhibition at 20 ppm (in data set [1]; in [2]; with Sclerotinia sclerotiorum; in the data set on Gaeumannomyces graminis; in [9]; in [4]) was ≥ 80% throughout. Besides, the inhibition at 20 ppm (in [8]; in data set [10]; in the data set on Pythium ultimum; with Fusarium culmorum) was ≥ 80% each time. Also, the pest or weed control at 200 ppm (in the data set with Pyrenophora teres; in the data set with Plasmopara viticola; in data set [6]; in data set [7]) was ≥ 80% each time.
On to `CCCn1c(-n2ncnc2N)nc2cncc(/C(C)=N\OC/C=C\Cl)c21` [Compound 180], for which the inhibition at 20 ppm (in data set [1]; in data set [2]; with Sclerotinia sclerotiorum; in the data set with Gaeumannomyces graminis; in data set [9]; in data set [4]) was ≥ 80% in each case. The inhibition at 20 ppm (in [10]; with Pythium ultimum; in the data set with Fusarium culmorum) was ≥ 80% throughout. In addition, the pest or weed control at 200 ppm (with Pyrenophora teres; in the data set with Plasmopara viticola; in [7]) was ≥ 80% in each case.
For the compound `CCn1c(-n2ncnc2N)nc2cncc(-c3ccc(Cl)cc3F)c21` [Compound 98, 2-[7-(4-chloro-2-fluorophenyl)-1-ethylimidazo[4,5-c]pyridin-2-yl]-1,2,4-triazol-3-amine], the inhibition at 20 ppm (in data set [1]; in data set [2]; with Sclerotinia sclerotiorum; with Gaeumannomyces graminis; in [9]; in data set [4]) was ≥ 80% in each case. Moreover, the inhibition at 20 ppm (in [8]; in [10]; with Fusarium culmorum) was ≥ 80% each time. The pest or weed control at 200 ppm (in the data set on Pyrenophora teres; in data set [6]; in [7]) was ≥ 80% each time. Further, the pest or weed control at 20 ppm in data set [11] was ≥ 80%.

Source of the values: patent publication US9512120B2, “Microbicidally active imidazopyridine derivatives” (Syngenta Participations AG, priority 2013, dated 2016).
